According to patent US11261196B2, “Salt serving as AKT inhibitor and crystal thereof” (HARBIN ZHENBAO PHARMACEUTICAL CO., LTD., priority 2017, dated 2022):

Key:
[1] = tested on: prostate cancer cell LNCaP overexpressing AKT; assay: Cytoactive test, cell proliferation (CellTiter-Glo); type: cell-based
Description: This experiment intends to study the inhibitory effect of the compound of formula (I) on the prostate cancer cell LNCaP overexpressing AKT.
The content of ATP directly reflects the number and state of cells, and the number of living cells can be detected by quantitatively measuring ATP. The live cell detection kit contains luciferase and its substrate, with the participation of ATP, luciferase can catalyze the substrate and emit a stable optical signal, the amount of ATP in the cell can be determined by detecting the strength of the signal. Wherein the light signal is proportional to the amount of ATP in the cell, and ATP is positively correlated to the number of living cells, so that the proliferation of the cell can be detected. The detection plate was analyzed by using Envision from PE Company.
LNCaP cells were seeded in a 384-well plate, each well contained 1000 cells.
The cell plate was placed in a carbon dioxide incubator overnight.
The compound was 3-fold diluted with Bravo into 10 compound concentrations, and a double duplicate well experiment was set up.
The compound was transferred to the cell plate at an initial concentration of 10 μM. […]
Promega CellTiter-Glo reagent was added to the cell plate, and incubated at room temperature for 10 minutes to stabilize the luminescence signal, which was read by PerkinElmer Envision multi-label analyzer.

[2] = molecular target: T1, AKT1 (Homo sapiens, UniProt P31749); assay: AKT enzyme activity test (LANCE TR-FRET), AKT1; type: biochemical
T1 construct: purchased life technology
T1 sequence (P31749 whole entry): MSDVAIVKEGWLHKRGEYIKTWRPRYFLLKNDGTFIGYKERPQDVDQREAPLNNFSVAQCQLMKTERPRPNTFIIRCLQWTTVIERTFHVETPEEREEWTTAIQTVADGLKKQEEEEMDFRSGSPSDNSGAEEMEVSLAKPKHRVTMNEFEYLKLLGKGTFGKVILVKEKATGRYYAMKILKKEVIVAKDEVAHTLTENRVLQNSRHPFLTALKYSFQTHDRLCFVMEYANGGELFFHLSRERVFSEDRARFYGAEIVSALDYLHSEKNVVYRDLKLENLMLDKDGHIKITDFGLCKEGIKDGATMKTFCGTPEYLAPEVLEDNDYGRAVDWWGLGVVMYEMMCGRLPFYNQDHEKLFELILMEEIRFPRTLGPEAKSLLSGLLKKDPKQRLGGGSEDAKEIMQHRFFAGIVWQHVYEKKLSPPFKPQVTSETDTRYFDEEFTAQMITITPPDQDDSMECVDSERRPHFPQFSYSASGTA
Description: AKT, also known as protein kinase B (PKB), is a serine/threonine specific protein kinase, mainly including AKT1, AKT2 and AKT3. The AKT signaling pathway plays an important role in various cellular processes such as glucose metabolism, apoptosis, cell proliferation transcription and cell migration. This study intends to analyze the inhibitory effect of the crystal form of the compound of formula (I) on the kinase activity of AKT family members.
In this experiment, the homogeneous time-resolved fluorescence […] energy transfer (LANCE TR-FRET®) method was used. The enzymes, biotinylated polypeptide substrates and the compound to be tested were mixed in the detection plate, and ATP was added to initiate the reaction and the mixture was incubated. After the reaction, EDTA was added to terminate the reaction, and Eu-labeled antibody was added at the same time to carry out the reaction and the reaction was detected. The detection plate was analyzed using Envision from PE Company, and the analysis mode was TR-FRET, the data were expressed by fluorescence signals at 665 nm and 615 nm, respectively.
Compound preparation: the test compound and the reference compound were diluted with 100% DMSO, the initial concentrations of the compounds were 10 μM, and the compounds were 3-fold gradient diluted into 10 concentrations. […]

[3] = Stability test of the crystal form (accelerated conditions, HPLC related substances); type: physicochemical
Method: […] The sample was analyzed after 10 days, 1 month and 2 months.
1.2 Preparation of Diluent and Mobile Phase
Diluent: acetonitrile:water (1:1) was used as diluent
For example: 100 mL of pure water and 100 mL of pure acetonitrile were mixed in a glass bottle, followed by degassing with ultrasound for 10 minutes, then cooled down to room temperature.
Mobile phase A: 0.1% phosphoric acid aqueous solution
For example: 2.0 mL phosphoric acid was added into 2000 mL water, followed by ultrasound treatment for 10 minutes, the solution was mixed well and cooled down to room temperature as mobile phase A.
Mobile phase B: acetonitrile
Acetonitrile was used as mobile phase B.
1.3 Preparation of the Reference Solution (0.25 mg/mL Calculated by the Free Base)
The sample of the 0th day was used as reference sample, 16 mL of diluent was added thereto, followed by ultrasound treatment for 5 minutes, and the solution was mixed well. Then the solution was further subjected to 1-fold dilution and marked as STD-1 and STD-2, respectively.
1.4 Preparation of Sample Solution for Testing Sensitivity
Reference solution STD-1 (the sample of the 0th day) was subjected to 2000-fold dilution, noted as LOQ.
1.5 Preparation of the Sample Solution (0.25 mg/mL Calculated by the Freebase)
The sample was taken out and restored to room temperature and 16 mL diluent was added for dissolution. The solution was further subjected to 1-fold dilution to be used as sample solution to detect the content of related substances.

Structure (SMILES): Cc1cnn2c1-c1cc(C(=O)N[C@H](CN)Cc3cccc(F)c3)sc1CCC2.O=C(O)/C=C\C(=O)O
- inhibitory effect on the growth of LNCaP cells [1]: significant inhibitory effect
- IC50 ([1]; Homo sapiens, 72 h, 3 days, read-out: IC50 of inhibition on cell proliferation): 67 nM
- inhibition effect against the activity of AKT1 kinase [2]: strong inhibition effect
- IC50 ([2]; Akt1 1.25 nM, ATP 36 μM, read-out: IC50 of inhibition on kinase activity, AKT1): 1.3 nM
- Impurity content, RRT 0.95 ([3]; 40° C./75%RH, 1M): 0.05%
- Impurity content, RRT 0.98 ([3]; 40° C./75%RH, 1M): 0.10%
- Impurity content, RRT 0.99 ([3]; 40° C./75%RH, 1M): 1.36%
- Impurity content, RRT 1.02 ([3]; 40° C./75%RH, 1M): 0.22%
- Impurity content, RRT 1.04 ([3]; 40° C./75%RH, 1M): 0.05%
- Impurity content, RRT 1.06 ([3]; 40° C./75%RH, 1M): 0.05%
- Impurity content, RRT 1.21 ([3]; 40° C./75%RH, 1M): 1.50%
- Impurity content, RRT 1.26 ([3]; 40° C./75%RH, 1M): 0.07%
- TRS (total impurity content) ([3]; 40° C./75%RH, 1M): 3.38%
- Impurity content, RRT 0.95 ([3]; 40° C./75%RH, 2M): 0.04%
- Impurity content, RRT 0.98 ([3]; 40° C./75%RH, 2M): 0.10%
- Impurity content, RRT 0.99 ([3]; 40° C./75%RH, 2M): 1.31%
- Impurity content, RRT 1.02 ([3]; 40° C./75%RH, 2M): 0.20%
- Impurity content, RRT 1.04 ([3]; 40° C./75%RH, 2M): 0.04%
- Impurity content, RRT 1.06 ([3]; 40° C./75%RH, 2M): 0.09%
- Impurity content, RRT 1.21 ([3]; 40° C./75%RH, 2M): 1.44%
- Impurity content, RRT 1.26 ([3]; 40° C./75%RH, 2M): 0.06%
- Impurity content, RRT 1.43 ([3]; 40° C./75%RH, 2M): 0.09%
- TRS (total impurity content) ([3]; 40° C./75%RH, 2M): 3.37%
- Impurity content, RRT 0.98 ([3]; 40° C./75%RH, 10D): 0.10%
- Impurity content, RRT 0.99 ([3]; 40° C./75%RH, 10D): 1.40%
- Impurity content, RRT 1.02 ([3]; 40° C./75%RH, 10D): 0.24%
- Impurity content, RRT 1.04 ([3]; 40° C./75%RH, 10D): 0.04%
- Impurity content, RRT 1.21 ([3]; 40° C./75%RH, 10D): 1.50%
- Impurity content, RRT 1.26 ([3]; 40° C./75%RH, 10D): 0.06%
- TRS (total impurity content) ([3]; 40° C./75%RH, 10D): 3.35%
- Impurity content, RRT 0.95 ([3]; 60° C./75%RH, 1M): 0.05%
- Impurity content, RRT 0.98 ([3]; 60° C./75%RH, 1M): 0.10%
- Impurity content, RRT 0.99 ([3]; 60° C./75%RH, 1M): 1.27%
- Impurity content, RRT 1.02 ([3]; 60° C./75%RH, 1M): 0.19%
- Impurity content, RRT 1.04 ([3]; 60° C./75%RH, 1M): 0.08%
- Impurity content, RRT 1.06 ([3]; 60° C./75%RH, 1M): 0.34%
- Impurity content, RRT 1.21 ([3]; 60° C./75%RH, 1M): 1.44%
- Impurity content, RRT 1.26 ([3]; 60° C./75%RH, 1M): 0.10%
- TRS (total impurity content) ([3]; 60° C./75%RH, 1M): 3.57%
- Impurity content, RRT 0.95 ([3]; 60° C./75%RH, 2M): 0.04%
- Impurity content, RRT 0.98 ([3]; 60° C./75%RH, 2M): 0.10%
- Impurity content, RRT 0.99 ([3]; 60° C./75%RH, 2M): 1.22%
- Impurity content, RRT 1.02 ([3]; 60° C./75%RH, 2M): 0.24%
- Impurity content, RRT 1.04 ([3]; 60° C./75%RH, 2M): 0.08%
- Impurity content, RRT 1.06 ([3]; 60° C./75%RH, 2M): 0.45%
- Impurity content, RRT 1.21 ([3]; 60° C./75%RH, 2M): 1.43%
- Impurity content, RRT 1.26 ([3]; 60° C./75%RH, 2M): 0.10%
- Impurity content, RRT 1.33 ([3]; 60° C./75%RH, 2M): 0.06%
- Impurity content, RRT 1.36 ([3]; 60° C./75%RH, 2M): 0.08%
- Impurity content, RRT 1.43 ([3]; 60° C./75%RH, 2M): 0.05%
- TRS (total impurity content) ([3]; 60° C./75%RH, 2M): 3.85%
- Impurity content, RRT 0.98 ([3]; 60° C./75%RH, 10D): 0.10%
- Impurity content, RRT 0.99 ([3]; 60° C./75%RH, 10D): 1.36%
